The values that follow come from patent US20250188457A1, “COMPOSITIONS AND METHODS FOR THE TREATMENT OF GLIOBLASTOMA BY INHIBITION OF THE TFPI2-CD51-STAT6 SIGNALING AXIS” (Northwestern University, priority 2023, published 2025).

Experiment [1] relates to GSC23 and GSC262 cells. The experiment in a line: CFSE proliferation analysis of GSCs. The class given is cell-based, human. The conditions noted are these: GSC23 and GSC262 with TFPI2 OE plasmid; JNK-IN-8 10 nM, WP1066 20 nM. As for the experimental part: Cell proliferation was assessed using the CellTrace CFSE Cell Proliferation Kit (Invitrogen, #C34554). 10^6 cells were harvested and incubated with CFSE working solution (1:1000) for 20 min at 37° C. The staining was stopped by adding complete cell culture media. After washing, cells were continuously cultured for 5 days in the dark. At the end of the incubation, cells were collected by spinning down at 1500 rpm for 5 min. The cell pellet was resuspended in cell staining buffer for flow cytometry analysis. The percentage of CFSE positive peaks over the undivided peak (generation 0) was analyzed using the ImageJ software.

For a further experiment, the system named is GSC23 tumor. Briefly: Survival of nude mice implanted with GSC23 expressing TFPI2 overexpression plasmid. The class given is in vivo, mouse. The conditions noted are these: 30 mg/kg body weight, i.p., every day, on day 7. As for the experimental part: Female C57BL/6 (#0000664), nude mice (#007850), and B6.12952(C)-Stat6tm1Gru/J mice (STAT6-KO; #005977) at 6 weeks of age were purchased from the Jackson Laboratory. Mice were grouped by 5 animals and maintained in a pathogen-free IVC System (San Diego, CA) for a week before the experiment. All animal experiments were performed with the approval of the Institutional Animal Care and Use Committee (IACUC) at Northwestern University. The intracranial xenograft tumor models were established (Refs. 11, 61; incorporated by reference in their entireties). Ketamine (100 mg/kg) and xylazine (20 mg/kg) were used for anesthetizing mice through intraperitoneal injection. Then a dental drill was used to open a small hole in the skull 1.2 mm anterior and 3.0 mm lateral to the bregma. A total volume of […] cells in FBS-free DMEM was injected into the right caudate nucleus 3 mm below the surface of the brain using a […] Hamilton syringe with an unbeveled 30-gauge needle. Total three doses of 20 mg/kg meloxicam were administrated before and after surgery through subcutaneous injection. After cancer cell implantation, mice were monitored for recording survival. Mice with neurological deficits or moribund appearance were sacrificed. […]

In experiment [2] the test system is GSC23 and GSC262 cells. Briefly: Apoptosis analysis of GSCs (Apotracker/PI flow cytometry). The class given is cell-based, human. Particulars: GSC23 and GSC262 with TFPI2 OE plasmid; JNK-IN-8 10 nM, WP1066 20 nM. As for the experimental part: Cell apoptosis was evaluated using Apotracker Green (BioLegend, #427402) (Ref. 78; incorporated by reference in its entirety). 10^5 cells were collected and stained with Apotracker (1:10 dilution) in […] cell staining buffer. […] propidium iodide (PI) solution (BioLegend, #421301) was added for labeling late apoptotic and necrotic cells. After washing with PBS twice, FITC and PI signals were analyzed in BD FACSymphony flow cytometer.
(A flow cytometer gives signals particle by particle.)

The test system of a further experiment is STAT3. Briefly: Immunoblot for P-STAT3 and STAT3 in GSCs. It counts as cell-based, human. Particulars: GSC23 and GSC262, TFPI2 OE or TFPI2 recombinant protein 20 ng/ml; JNK-IN-8 10 nM. The protocol:
(§1) The protein expression in cells was determined by western blotting analysis (Ref. 61; incorporated by reference in its entirety). Cells were homogenized in RIPA lysis buffer containing phosphatase/protease cocktail inhibitors (Cell Signaling Technology, #5870). The protein concentration was determined by BCA Protein Assay Kit (Thermo Fisher Scientific, #P123225). Protein solution was mixed with the Leammli sample buffer and heated at 95° C. before loading to SurePAGE gels (GenScript, #M00653). The gels were run at a constant voltage of 80 V and then transferred to 0.2 μm nitrocellulose membrane (Bio-Rad, #1620112) using the Trans-Blot Turbo system (Bio-Rad) with a preprogrammed standard protocol for 30 min. Nitrocellulose membrane was incubated with 5% dry milk to block any unspecific staining. […]
(Immunoblotting shows a protein as a band on a membrane.)

The subject of experiment [3] is GSC23 and GSC262 cells. Briefly: Tumorsphere formation assay (GSC self-renewal). The class given is cell-based, human. Particulars: GSC23 and GSC262 with TFPI2 OE plasmid; JNK-IN-8 10 nM, WP1066 20 nM. As for the experimental part:
The tumorsphere formation assay was performed (Ref. 79; incorporated by reference in its entirety). GSCs were treated with different concentrations of recombinant TFPI2 protein for 24 hrs with or without inhibition of JNK or STAT3, or modified with TFPI21 KO, knockdown or overexpression. After treatment or genetic modifications, cells were centrifuged at 1500 rpm for 5 min and resuspended in the plain cell culture media without additional supplements. Cells were then seeded into a 96-wells plate at 100 cells/well. The number of tumorspheres in each well was imaged and quantified after 10 days.

For a further experiment, the system named is 005 GSC and CT2A tumors. Briefly: Survival of C57BL/6 mice implanted with 005 GSCs or CT2A cells. The class given is in vivo, mouse. Particulars: for survival of mice bearing 005 GSC and CT2A tumors, combination with anti-PD1 therapy: anti-PD1 10 mg/kg i.p. on days 11, 14 and 17, MK-0429 30 mg/kg or AS1517499 10 mg/kg i.p. every other day. The protocol: Female C57BL/6 (#0000664), nude mice (#007850), and B6.12952(C)-Stat6tm1Gru/J mice (STAT6-KO; #005977) at 6 weeks of age were purchased from the Jackson Laboratory. Mice were grouped by 5 animals and maintained in a pathogen-free IVC System (San Diego, CA) for a week before the experiment. All animal experiments were performed with the approval of the Institutional Animal Care and Use Committee (IACUC) at Northwestern University. The intracranial xenograft tumor models were established (Refs. 11, 61; incorporated by reference in their entireties). Ketamine (100 mg/kg) and xylazine (20 mg/kg) were used for anesthetizing mice through intraperitoneal injection. Then a dental drill was used to open a small hole in the skull 1.2 mm anterior and 3.0 mm lateral to the bregma. A total volume of […] cells in FBS-free DMEM was injected into the right caudate nucleus 3 mm below the surface of the brain using a […] Hamilton syringe with an unbeveled 30-gauge needle. Total three doses of 20 mg/kg meloxicam were administrated before and after surgery through subcutaneous injection. After cancer cell implantation, mice were monitored for recording survival. Mice with neurological deficits or moribund appearance were sacrificed. Following the transcardiac perfusion with PBS and 4% paraformaldehyde (PFA), brains were removed and fixed in 4% PFA, and were processed for paraffin-embedded blocks or cryosectioning.

For the next experiment, the system named is JNK. The experiment in a line: Immunoblot for P-JNK and JNK in GSCs. The class given is cell-based, human. Particulars: GSC23 and GSC262, TFPI2 OE or TFPI2 recombinant protein 20 ng/ml; WP1066 20 nM. As for the experimental part:
as §1

Consider `Cc1cc(NC(=O)c2cccc(NC(=O)/C=C/CN(C)C)c2)ccc1Nc1nccc(-c2cccnc2)n1` [JNK-IN-8], for which the “proliferation effect of increasing cellular TFPI2 in GSCs” value with GSC23 and GSC262 cells [1] is given as “negated”. For the same compound, the “shortening of survival by TFPI2 overexpression in GSC23 tumor-bearing mice” value in the experiment on GSC23 tumor was “abolished”. Besides, in the experiment on GSC23 and GSC262 cells [2], the “apoptotic effect of increasing cellular TFPI2 in GSCs” value is recorded as “negated”. Also, the “TFPI2-induced STAT3 activation (P-STAT3)” value with STAT3 is recorded as “blocked”. In addition, the “self-renewal effect of increasing cellular TFPI2 in GSCs (tumorspheres)” value in the experiment with GSC23 and GSC262 cells [3] was “negated”.
Regarding `CC(C)[C@H]1C(=O)N[C@@H](CCCN=C(N)N)C(=O)NCC(=O)N[C@@H](CC(=O)O)C(=O)N[C@H](Cc2ccccc2)C(=O)N1C` [Cilengitide], the “survival of mice implanted with 005 GSCs and CT2A cells, inhibitor alone” value in the experiment with 005 GSC and CT2A tumors (MK-0429 30 mg/kg or AS1517499 10 mg/kg, i.p., every other day, on day 7, Cilengitide dose not given) is recorded as “significantly extended the survival”. Further, the “survival of mice bearing 005 GSC and CT2A tumors, combination with anti-PD1 therapy” value with 005 GSC and CT2A tumors is recorded as “enhanced the efficacy”.
As for `COc1ccc([C@H](CC(=O)O)N2CCN(CCCc3ccc4c(n3)NCCC4)C2=O)cn1` [MK-0429], in the experiment on 005 GSC and CT2A tumors, the “survival of mice bearing 005 GSC and CT2A tumors, combination with anti-PD1 therapy” value is given as “synergized”.
As for `C[C@H](NC(=O)/C(C#N)=C/c1cccc(Br)n1)c1ccccc1` [WP1066], the “proliferation effect of increasing cellular TFPI2 in GSCs” value in the experiment on GSC23 and GSC262 cells [1] is reported as “negated”. Besides, the “shortening of survival by TFPI2 overexpression in GSC23 tumor-bearing mice” value in the experiment with GSC23 tumor is listed as “abolished”. Moreover, the “apoptotic effect of increasing cellular TFPI2 in GSCs” value in the experiment on GSC23 and GSC262 cells [2] is “negated”. The “TFPI2-induced JNK activation (P-JNK)” value with JNK is “no effect”. The “self-renewal effect of increasing cellular TFPI2 in GSCs (tumorspheres)” value with GSC23 and GSC262 cells [3] is reported as “negated”.
